These results are taken from publication PMC8808744 (ACS chemical biology, 2019).

Molecules are shown by their SMILES. Converted amounts (≈) assume the structure as drawn.

The subject of test [1] is P. aeruginosa PAO1. The format is cell-based, Pseudomonas aeruginosa.
Another test addresses MltDsol (Pseudomonas aeruginosa, UniProt Q9I2T2). Put plainly: biochemical. The format is binding.
The target of a further test is SltB1 (Pseudomonas aeruginosa, UniProt Q9HX24). Put plainly: biochemical. The format is binding.
SltB1, sequence (Q9HX24 34-340 limits assumed): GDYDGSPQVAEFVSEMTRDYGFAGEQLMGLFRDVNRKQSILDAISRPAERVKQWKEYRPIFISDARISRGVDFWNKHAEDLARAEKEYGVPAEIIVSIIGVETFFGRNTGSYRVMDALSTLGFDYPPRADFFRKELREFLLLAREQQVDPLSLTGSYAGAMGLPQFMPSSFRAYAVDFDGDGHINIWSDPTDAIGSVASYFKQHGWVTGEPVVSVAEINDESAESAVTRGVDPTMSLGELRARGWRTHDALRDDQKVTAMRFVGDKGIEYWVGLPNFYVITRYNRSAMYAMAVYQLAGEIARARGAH
Another test has as its target Ec MltGsol (Escherichia coli, UniProt P28306). Put plainly: Dissociation constant by non-denaturing mass spectrometry, E. coli MltGsol. The format is binding.
In the next test the target is Slt (Pseudomonas aeruginosa, UniProt Q9HZI6). Put plainly: biochemical. The format is binding.
Slt, sequence (Q9HZI6 25-642 limits assumed): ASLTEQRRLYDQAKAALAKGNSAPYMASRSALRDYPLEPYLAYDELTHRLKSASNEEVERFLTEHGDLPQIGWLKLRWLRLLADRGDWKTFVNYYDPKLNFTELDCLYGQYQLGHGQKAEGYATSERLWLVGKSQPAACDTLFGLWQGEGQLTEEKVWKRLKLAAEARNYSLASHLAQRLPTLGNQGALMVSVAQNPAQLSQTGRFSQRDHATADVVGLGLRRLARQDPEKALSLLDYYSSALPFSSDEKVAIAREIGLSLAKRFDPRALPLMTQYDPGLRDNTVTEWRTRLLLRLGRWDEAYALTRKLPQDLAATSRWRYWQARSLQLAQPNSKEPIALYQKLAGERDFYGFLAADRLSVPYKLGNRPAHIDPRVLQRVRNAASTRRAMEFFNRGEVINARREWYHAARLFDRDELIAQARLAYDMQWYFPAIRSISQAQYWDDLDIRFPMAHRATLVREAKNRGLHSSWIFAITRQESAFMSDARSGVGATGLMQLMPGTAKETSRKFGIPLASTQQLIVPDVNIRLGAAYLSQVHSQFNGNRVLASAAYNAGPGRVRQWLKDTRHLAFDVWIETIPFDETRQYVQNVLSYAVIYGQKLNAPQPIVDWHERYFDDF
For test [2], the system named is wild-type P. aeruginosa PAO1. Put plainly: Growth-curve assay in liquid medium. The format is cell-based, Pseudomonas aeruginosa. The note with it: CAZ at 0.28 μg mL^−1, MEM at 0.14 μg mL^−1 (sub-MIC).
Test [3] deals with P. aeruginosa PAO1. Put plainly: MIC against parent strain PAO1. The format is cell-based. As to conditions: Pseudomonas aeruginosa.

Ec MltGsol, sequence (P28306 25-340 with tags or gaps limits assumed): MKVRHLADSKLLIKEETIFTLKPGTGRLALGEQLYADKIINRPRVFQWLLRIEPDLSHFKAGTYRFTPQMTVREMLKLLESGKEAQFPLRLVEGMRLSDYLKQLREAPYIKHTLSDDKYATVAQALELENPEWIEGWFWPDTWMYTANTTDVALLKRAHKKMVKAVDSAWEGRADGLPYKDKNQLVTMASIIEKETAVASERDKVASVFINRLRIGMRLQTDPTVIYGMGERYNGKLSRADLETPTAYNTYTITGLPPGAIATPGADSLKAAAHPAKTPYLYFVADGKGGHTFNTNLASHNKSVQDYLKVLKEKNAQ
MltDsol, sequence (Q9I2T2 32-534 limits assumed): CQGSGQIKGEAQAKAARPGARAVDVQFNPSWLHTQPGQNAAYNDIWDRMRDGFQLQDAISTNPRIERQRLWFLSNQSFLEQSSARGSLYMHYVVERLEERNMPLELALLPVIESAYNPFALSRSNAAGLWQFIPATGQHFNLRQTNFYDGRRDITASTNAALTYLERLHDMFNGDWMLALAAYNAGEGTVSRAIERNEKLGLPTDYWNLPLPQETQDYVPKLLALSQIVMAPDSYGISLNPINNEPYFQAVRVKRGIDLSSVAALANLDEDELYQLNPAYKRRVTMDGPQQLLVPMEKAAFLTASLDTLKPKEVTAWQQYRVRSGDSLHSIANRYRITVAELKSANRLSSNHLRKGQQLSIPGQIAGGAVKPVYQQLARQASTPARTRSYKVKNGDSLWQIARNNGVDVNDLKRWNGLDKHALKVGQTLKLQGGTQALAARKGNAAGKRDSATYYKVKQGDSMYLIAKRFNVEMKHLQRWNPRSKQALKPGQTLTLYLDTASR

Consider `CC(=O)N[C@H]1[C@H](O[C@H]2C[C@@H](C(=O)NCCS(=O)(=O)O)N[C@@H]2CO)O[C@H](CO)[C@@H](OS(=O)(=O)O)[C@@H]1O` [Bulgecin A], for which the “recovery of CAZ/bulgecin A-damaged bacteria” value in the test with P. aeruginosa PAO1 [1] is recorded as “delayed recovery”. For the same compound, the dissociation constant Kd (as a rule, a measure of binding affinity in units of concentration) on MltDsol was 1.4 ± 0.3 µM; at SltB1, 160 ± 21 µM; at Ec MltGsol, 24 ± 5.1 µM; on Slt it was 8.5 ± 1.1 µM.
In the case of `C[C@@H](O)[C@H]1C(=O)N2C(C(=O)O)=C(S[C@@H]3CN[C@H](C(=O)N(C)C)C3)[C@H](C)[C@H]12` [MEM, Meropenem], in test [2], the “growth of wild-type PAO1 with β-lactam alone” value is reported as “normal growth”. Further, in the test on P. aeruginosa PAO1 [3], the MIC (commonly the lowest concentration that inhibits growth of the organism) worked out at 0.5 µg/mL (≈ 1.3 µM).
For `CC(C)(O/N=C(\C(=O)N[C@@H]1C(=O)N2C(C(=O)[O-])=C(C[n+]3ccccc3)CS[C@H]12)c1csc(N)n1)C(=O)O` [CAZ, Ceftazidime], in that order: “normal growth” and 0.5 µg/mL (≈ 0.915 µM).
